Data from ChEMBL document CHEMBL2311461, “Linear and cyclic glycopeptide as HIV protease inhibitors” (Eur J Med Chem, 2013).

Assay: Inhibition of C-south african HIV-1 protease assessed as hydrolysis of the chromogenic peptide substrate Lys-Ala-Arg-Val-Nle-p-nitro-Phe-Glu-Ala-Nle-NH2
Parameters: species or system Human immunodeficiency virus 1

CC[C@H](C)[C@H](NC(=O)[C@H](C)NC(=O)C[C@H](NCc1ccccc1)C1O[C@@H]2OC(C)(C)O[C@@H]2[C@H]1OCc1ccccc1)C(=O)N[C@@H](COCc1ccccc1)C(=O)O (some centres not stated)
IC50: > 10 µM

CC[C@H](C)[C@@H]1NC(=O)[C@H](C)NC(=O)C[C@@H](C2O[C@@H]3OC(C)(C)O[C@@H]3[C@H]2OCc2ccccc2)NC(=O)[C@H](COCc2ccccc2)NC1=O (some centres not stated)
IC50: > 10 µM

Cc1cccc(C)c1OCC(=O)N[C@@H](Cc1ccccc1)[C@@H](O)C[C@H](Cc1ccccc1)NC(=O)[C@H](C(C)C)N1CCCNC1=O [LOPINAVIR]
IC50: 0.025 µM

CC[C@H](C)[C@H](NC(=O)[C@H](C)NC(=O)C[C@H](N)C1O[C@@H]2OC(C)(C)O[C@@H]2[C@H]1O)C(=O)N[C@@H](CO)C(=O)O (some centres not stated)
IC50: 1.5 µM

CC[C@H](C)[C@H](NC(=O)[C@H](C)NC(=O)[C@H](CCC(=O)O)NC(=O)C[C@H](N)C1O[C@@H]2OC(C)(C)O[C@@H]2[C@H]1O)C(=O)O (some centres not stated)
IC50: 3.05 µM

CC[C@H](C)[C@H](NC(=O)[C@H](C)NC(=O)C[C@H](N)C1O[C@@H]2OC(C)(C)O[C@@H]2[C@H]1OCc1ccccc1)C(=O)N[C@@H](COCc1ccccc1)C(=O)O (some centres not stated)
IC50: > 10 µM

CC[C@H](C)[C@H](NC(=O)[C@H](C)NC(=O)[C@H](CCC(=O)OCc1ccccc1)NC(=O)C[C@H](N)C1O[C@@H]2OC(C)(C)O[C@@H]2[C@H]1OCc1ccccc1)C(=O)O (some centres not stated)
IC50: 3.5 µM

CC(C)[C@@H]1NC(=O)[C@H](Cc2ccccc2)NC(=O)C[C@@H](C2O[C@@H]3OC(C)(C)O[C@@H]3[C@H]2OCc2ccccc2)NC(=O)[C@H](C)NC1=O (some centres not stated)
IC50: 6.5 µM

CC(C)[C@H](NC(=O)[C@H](Cc1ccccc1)NC(=O)C[C@H](N)C1O[C@@H]2OC(C)(C)O[C@@H]2[C@H]1OCc1ccccc1)C(=O)N[C@@H](C)C(=O)O (some centres not stated)
IC50: 1.33 µM

CC[C@H](C)[C@@H]1NC(=O)[C@H](C)NC(=O)[C@H](CCC(=O)OCc2ccccc2)NC(=O)C[C@@H](C2O[C@@H]3OC(C)(C)O[C@@H]3[C@H]2OCc2ccccc2)NC1=O (some centres not stated)
IC50: 2.5 µM

CC(C)[C@H](NC(=O)[C@H](Cc1ccccc1)NC(=O)C[C@H](N)C1O[C@@H]2OC(C)(C)O[C@@H]2[C@H]1O)C(=O)N[C@@H](C)C(=O)O (some centres not stated)
IC50: 1.1 µM

CC[C@H](C)[C@@H]1NC(=O)[C@H](C)NC(=O)C[C@@H](C2O[C@@H]3OC(C)(C)O[C@@H]3[C@H]2O)NC(=O)[C@H](CO)NC1=O (some centres not stated)
IC50: 3 µM

CC(C)[C@@H]1NC(=O)[C@H](Cc2ccccc2)NC(=O)C[C@@H](C2O[C@@H]3OC(C)(C)O[C@@H]3[C@H]2O)NC(=O)[C@H](C)NC1=O (some centres not stated)
IC50: 0.961 µM

CC(C)[C@H](NC(=O)[C@H](Cc1ccccc1)NC(=O)C[C@H](NCc1ccccc1)C1O[C@@H]2OC(C)(C)O[C@@H]2[C@H]1OCc1ccccc1)C(=O)N[C@@H](C)C(=O)O (some centres not stated)
IC50: 2.38 µM

COC(=O)N[C@H](C(=O)N[C@@H](Cc1ccccc1)[C@@H](O)CN(Cc1ccc(-c2ccccn2)cc1)NC(=O)[C@@H](NC(=O)OC)C(C)(C)C)C(C)(C)C [ATAZANAVIR]
IC50: 0.004 µM

CC[C@H](C)[C@H](NC(=O)[C@H](C)NC(=O)[C@H](CCC(=O)OCc1ccccc1)NC(=O)C[C@H](NCc1ccccc1)C1O[C@@H]2OC(C)(C)O[C@@H]2[C@H]1OCc1ccccc1)C(=O)O (some centres not stated)
IC50: 5 µM

CC[C@H](C)[C@@H]1NC(=O)[C@H](C)NC(=O)[C@H](CCC(=O)O)NC(=O)C[C@@H](C2O[C@@H]3OC(C)(C)O[C@@H]3[C@H]2O)NC1=O (some centres not stated)
IC50: 2.62 µM
